Entries after “also recorded” stand apart in the source; their conditions may differ. Bridge positions count the residues as written; N and C are the ends. Ends that are not written are not given here.
Experiments:
lymphatic vessels [1] = conditions: ex vivo studies; cited from earlier work
lymphatic vessels [2] = assay: near-infrared (NIR) imaging of indocyanine green (ICG) transport after footpad injection; assay type: in vivo; conditions: mouse, sildenafil 12 mg/kg intraperitoneally, images taken 20 minutes after treatment, versus saline control
Experimental: To determine if phosphodiesterase (PDE) inhibitors were capable of increasing lymphatic transport, near-infrared (NIR) imaging of indocyanine green ICG) transport was used. ICG (20 μl of 0.1 mg ICG/ml water) was injected into the footpad Of the animal Where it is taken up by the lymphatic system. The extremity was illuminated with near infrared light (generated with a tungsten halogen source) resulting in near infrared fluorescence at a longer wavelength that was recorded with a near-infrared sensitive camera (Prosilica GC1380; Allied Vision Technologies; Stadtroda, Germany). Excitation and emission wavelengths were separated using Semrock filters (IDEX; Lake Forest, Ill.) from the ICG-A filter set. To determine if PDE inhibitors Were capable of increasing lymphatic transport, sildenafil (12 mg/kg), a PDE5 antagonist, was injected intraperitoneally with ICG into the footpad of a mouse. Saline was used a control.

| Compound | lymphatic pulsing and/or flow (lymphatic vessels [1]) | ICG uptake into lymphatic vessels / lymphatic system (lymphatic vessels [2]) |
| --- | --- | --- |
| CCCCC[C@H](O)/C=C/[C@@H]1[C@@H](C/C=C\CCCC(=O)O)[C@H]2CO[C@@H]1C2 [U46619] | increase lymphatic pulsing and/or flow | – |
| O=S(=O)(O)c1cc(O)ccc1O [doxium] | increase lymphatic pulsing and/or flow | – |
| NC[C@H](O)c1ccc(O)c(O)c1 [norepinephrine] | increase lymphatic pulsing and/or flow | – |
| CCCc1nn(C)c2c(=O)[nH]c(-c3cc(S(=O)(=O)N4CCN(C)CC4)ccc3OCC)nc12 [sildenafil] | – | increases indocyanine green (ICG) uptake into lymphatic vessels; also recorded: increased ICG uptake into the lymphatic system |
| endothelin-1 (CSCSSLMDKECVYFCHLDIIW; disulfide 1-15, 3-11; ends not checked; UniProt P05305 53-73, looked up) | increase lymphatic pulsing and/or flow | – |
| hyaluronidase | increase lymphatic pulsing and/or flow | – |
| substance P (RPKPQQFFGLM-NH2; ends and bridges not checked; UniProt P20366 58-68, looked up) | increase lymphatic pulsing and/or flow | – |

Reference: patent US20160022681A1, “METHODS OF INCREASING LYMPHATIC TRANSPORT” (UNIVERSITY OF ROCHESTER, priority 2012, published 2016)
